# Assay results as given in patent US6458746B1, “Plant growth regulating formulations” (BASF Aktiengesellschaft, priority 1998, dated 2002).
# Experiments:
# Format in all cases: in vivo
# [1] = tested on: spring barley (cv. “Alexis”); assay: Shoot height reduction in spring barley, synergistic combinations; settings: 20 days after treatment
# Protocol: (§1) Unless otherwise noted, the growth regulating proerties of different compounds in different formulations were determined under greenhouse conditions as follows: […]
# (§2) Test plants were grown in plastic pots of approximately 12.5 cm in diameter in a substrate provided with sufficient nutrients and water. At an appropriate shoot length the plants were treated with aqueous sprays of the formulations. The growth-regulating action observed was confirmed at the end of the experiment by measuring the height of the plants. The results obtained were compared with the growth height of the untreated plants.
# (§3) To show the synergistic effects of formulations in accordance with the instant invention together with further growth regulating agents, formulations in accordance with the invention were prepared and additional active ingredients added.
# Shoot height reduction in spring barley (cv. “Alexis”) 20 days after treatment with combinations of standard compound S2 and compound VII
# Shoot height reduction in spring barley (cv. “Alexis”) 20 days after treatment with combinations of standard compound S4 and compound VII
# [2] = tested on: small grains and rice (wheat, barley, oats, rye, rice); assay: Shoot length reduction in small grains and rice (statements across species); settings: Examples 1 and 2
# Protocol: as §1, §2
# [3] = tested on: oats; assay: Greenhouse shoot length test, oats; settings: 1% formulations in cyclohexanone: Emulan EL = 4:1; further: key: 0: no effect; +: low activity; ++: intermediate activity; +++: high activity
# Protocol: as §1, §2
# [4] = tested on: wheat; assay: Greenhouse shoot length test, wheat; settings: for Shoot length Wheat [% of control]: 1% formulations in Atlas G 1086; for Shoot length [% of control] Wheat: 2.5 g/ha ai; on Shoot length reduction [activity, relative to control] in wheat: key: 0: no effect; +: low activity; ++: intermediate activity; +++: high activity
# Protocol: as §1, §2
# (§4) Assays with wheat, barley, oat, and rye plants were carried out as described above. The aqueous spray solutions were prepared as follows: […]
# [5] = tested on: barley; assay: Greenhouse shoot length test, barley; settings: for Shoot length Barley [% of control]: 1% formulations in Atlas G 1086; for Shoot length [% of control] Barley: 2.5 g/ha ai
# Protocol: as §1, §2, §4
# [6] = tested on: spring wheat (cv. “Ralle”); assay: Shoot height reduction in spring wheat, synergistic combinations
# Protocol: as §1, §2, §3
# Shoot height reduction in spring wheat (cv. “Ralle”) 21 days after treatment with combinations of standard compound S4 and compound VII
# Shoot height reduction in spring wheat (cv. “Ralle”) 13 days after treatment with combinations of standard compound S5 and compound VII
# [7] = tested on: rye; assay: Greenhouse shoot length test, rye; settings: 1% formulations in cyclohexanone: Emulan EL = 4:1; further: key: 0: no effect; +: low activity; ++: intermediate activity; +++: high activity
# Protocol: as §1, §2
# [8] = tested on: rice seedlings [cvs. “Koshihikari” (tall), “Tan-ginbozu” (dwarf), “Waito C” (dwarf)]; assay: Shoot growth of rice seedlings, combinations with GA3; settings: for Shoot growth Waito C [% of Control] / Shoot growth Tan-ginbozu [% of Control] / Shoot growth Koshihikari [% of Control]: 7 days after treatment, 1 kg/ha ammonium sulphate added; for Shoot growth Waito C [% of Control]: 100% = 8.7 cm; for Shoot growth Tan-ginbozu [% of Control]: 100% = 9.4 cm; for Shoot growth Koshihikari [% of Control]: 100% = 17.4 cm
# Protocol: as §1, §2
# The synergizing effect of compound VII on shoot elongation in rice is shown in the results of Example 7.
# Enhanced shoot growth of rice seedlings [cvs. “Koshihikari” tall), “Tan-ginbozu” (dwarf), “Waito C” (dwarf)] 7 days after treatment with combinations of compound 6 with GA3^d
# [9] = tested on: rice; assay: Greenhouse shoot length test, rice; settings: 1% formulations in cyclohexanone: Emulan EL = 4:1; further: key: 0: no effect; +: low activity; ++: intermediate activity; +++: high activity
# Protocol: as §1, §2
# [10] = 1% formulations in cyclohexanone: Emulan EL = 4:1
substance,measurement,setting,value
"exo-16,17-Dihydro-GA5-13-acetate [Comp. VII]",% Shoot height reduction Actual,[1]; 3 g/ha a.i.,6%
same,% Shoot height reduction Actual,"[1]; 3 g/ha a.i., S4/VII table",6%
same,% Shoot height reduction Actual,[1]; 6 g/ha a.i.,18%
same,% Shoot height reduction Actual,"[1]; 6 g/ha a.i., S4/VII table",18%
same,shoot length reduction compared with compounds II to V,[2],superior to compounds II to V
same,"Shoot length reduction [activity, relative to control] in oats",[3],+++
same,"Shoot length reduction [activity, relative to control] in wheat",[4]; [10],+++
same,Shoot length Wheat [% of control],[4]; 1.6 g/ha ai,90 % of control
same,Shoot length [% of control] Wheat,[4]; adjuvant Ethanol 500 g/ha,99 % of control
same,Shoot length [% of control] Wheat,[4]; adjuvant R 15 500 g/ha,73 % of control
same,Shoot length Wheat [% of control],[4]; 3.1 g/ha ai,73 % of control
same,Shoot length Wheat [% of control],[4]; 6.3 g/ha ai,70 % of control
same,Shoot length Wheat [% of control],[4]; 12.5 g/ha ai,64 % of control
same,"Shoot length reduction [activity, relative to control] in barley",[5]; [10],+++
same,Shoot length Barley [% of control],[5]; 1.6 g/ha ai,97 % of control
same,Shoot length [% of control] Barley,[5]; adjuvant Ethanol 500 g/ha,99 % of control
same,Shoot length [% of control] Barley,[5]; adjuvant R 15 500 g/ha,75 % of control
same,Shoot length Barley [% of control],[5]; 3.1 g/ha ai,78 % of control
same,Shoot length Barley [% of control],[5]; 6.3 g/ha ai,61 % of control
same,Shoot length Barley [% of control],[5]; 12.5 g/ha ai,57 % of control
same,% Shoot height reduction Actual,"[6]; 3 g/ha a.i., 21 days after treatment",8%
same,% Shoot height reduction Actual,"[6]; 6 g/ha a.i., 13 days after treatment",18%
same,% Shoot height reduction Actual,"[6]; 6 g/ha a.i., 21 days after treatment",21%
same,"Shoot length reduction [activity, relative to control] in rye",[7],+++
same,Shoot growth Waito C [% of Control],[8]; VII 12.5 g/ha ai,80 % of Control
same,Shoot growth Tan-ginbozu [% of Control],[8]; VII 12.5 g/ha ai,74 % of Control
same,Shoot growth Koshihikari [% of Control],[8]; VII 12.5 g/ha ai,75 % of Control
same,Shoot growth Waito C [% of Control],[8]; VII 25.0 g/ha ai,80 % of Control
same,Shoot growth Tan-ginbozu [% of Control],[8]; VII 25.0 g/ha ai,74 % of Control
same,Shoot growth Koshihikari [% of Control],[8]; VII 25.0 g/ha ai,75 % of Control
same,Shoot growth Waito C [% of Control],[8]; VII 50.0 g/ha ai,80 % of Control
same,Shoot growth Tan-ginbozu [% of Control],[8]; VII 50.0 g/ha ai,74 % of Control
same,Shoot growth Koshihikari [% of Control],[8]; VII 50.0 g/ha ai,75 % of Control
same,effect on shoot elongation in rice,[8]; applied alone,reduces shoot elongation
same,effect on the shoot growth-promoting effect of GA3,[8]; applied in combination with GA3,could clearly be raised
same,"Shoot length reduction [activity, relative to control] in rice",[9],+++
